Columns and labels:
[1] = system: normal primary NK cells, pool 1 (3 donors) (IL-2 2.5 ng/mL); assay: drug sensitivity score (DSS) (DSS units); higher = more sensitive; extreme values may be limits of the assay; conditions: 72 h
[2] = system: NK-92 (IL-2 2.5 ng/mL); assay: as above; conditions: 72 h
[3] = system: SNK-6 (IL-2 2.5 ng/mL); assay: as above; conditions: 72 h
[4] = system: NKL (IL-2 2.5 ng/mL); assay: as above; conditions: 72 h
[5] = system: normal primary NK cells, pool 2 (3 donors) (IL-2 2.5 ng/mL); assay: as above; conditions: 72 h
[6] = system: KHYG-1 (IL-2 2.5 ng/mL); assay: as above; conditions: 72 h
[7] = system: normal primary NK cells, pool 1 (3 donors), resting (IL-2 0 ng/mL); assay: as above; conditions: 72 h
[8] = system: NK-YS (IL-2 2.5 ng/mL); assay: as above; conditions: 72 h
[9] = system: IMC-1 (IL-2 20 ng/mL); assay: as above; conditions: 72 h
[10] = system: normal primary NK cells, pool 3 (3 donors) (IL-2 2.5 ng/mL); assay: as above; conditions: 72 h
[11] = system: DERL-7 (IL-2 2.5 ng/mL); assay: as above; conditions: 72 h
[12] = system: YT (IL-2 2.5 ng/mL); assay: as above; conditions: 72 h
[13] = system: KAI3 (IL-2 2.5 ng/mL); assay: as above; conditions: 72 h
[14] = system: normal NK cells expanded with K562-aAPC; assay: percent inhibition of viability; higher = more inhibition; conditions: 72 h, IL-2 2.5 ng/mL
Procedure: (§1)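 Drug sensitivity and resistance testing on K562-aAPC-expanded normal NK cells: 5 concentrations (10-fold steps over a 10,000-fold range), 72 h at 37 °C, viability by CellTiter-Glo normalised to DMSO and benzethonium chloride controls; DSS from the fitted curve.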

[15] = system: normal NK cells expanded with K562-aAPC; assay: drug sensitivity score (DSS) (DSS units); higher = more sensitive; extreme values may be limits of the assay; conditions: 72 h; IL-2 2.5 ng/mL
Procedure: as §1

[16] = system: normal primary NK cells, pool 1 (3 donors) (IL-2 2.5 ng/mL); assay: percent inhibition of viability; higher = more inhibition; conditions: 72 h
[17] = system: NK-92 (IL-2 2.5 ng/mL); assay: as above; conditions: 72 h
[18] = system: SNK-6 (IL-2 2.5 ng/mL); assay: as above; conditions: 72 h
[19] = system: NKL (IL-2 2.5 ng/mL); assay: as above; conditions: 72 h
[20] = system: normal primary NK cells, pool 2 (3 donors) (IL-2 2.5 ng/mL); assay: as above; conditions: 72 h
[21] = system: KHYG-1 (IL-2 2.5 ng/mL); assay: as above; conditions: 72 h
[22] = system: normal primary NK cells, pool 1 (3 donors), resting (IL-2 0 ng/mL); assay: as above; conditions: 72 h
[23] = system: NK-YS (IL-2 2.5 ng/mL); assay: as above; conditions: 72 h
[24] = system: IMC-1 (IL-2 20 ng/mL); assay: as above; conditions: 72 h
[25] = system: normal primary NK cells, pool 3 (3 donors) (IL-2 2.5 ng/mL); assay: as above; conditions: 72 h
[26] = system: DERL-7 (IL-2 2.5 ng/mL); assay: as above; conditions: 72 h
[27] = system: YT (IL-2 2.5 ng/mL); assay: as above; conditions: 72 h
[28] = system: KAI3 (IL-2 2.5 ng/mL); assay: as above; conditions: 72 h

CNC(=O)c1cc(Oc2ccc(NC(=O)Nc3ccc(Cl)c(C(F)(F)F)c3)cc2)ccn1 [Sorafenib] (max concentration tested 1000 nM)
Conditions	drug sensitivity score
[1]	0
[2]	0.73
[3]	3.94
[4]	0
[5]	0
[6]	0
[7]	1.53
[8]	0
[9]	0
[10]	0
[11]	1.11
[12]	0
[13]	0
[15]	0

percent inhibition of viability [%]
Conditions	0.1 nM	1 nM	10 nM	100 nM	1000 nM
[14]	-0.62	-4.84	0.63	-4.73	-7.05
[16]	-10	-8.22	-3.22	-10.4	-2.85
[17]	-2.2	-1.4	-3.13	-5.91	25.7
[18]	9.25	14.7	5.19	17.7	30.7
[19]	-18.1	-17.9	-14.8	-9.31	-11.3
[20]	-8.52	-3.3	-11.4	-7	-14.1
[21]	-1.09	0	-1.1	2.71	-0.82
[22]	-6.78	-15.6	0.71	9.47	20.5
[23]	-0.65	-1.62	-0.99	3.14	5.95
[24]	-6.25	-2.7	-8.4	-3.64	-1.65
[25]	-4.53	-9.01	-3.28	-8.55	-2.67
[26]	-14.3	2.59	4.15	1.1	25.2
[27]	-0.23	-2.47	0.91	1.22	3.17
[28]	2.87	5.97	0.72	2.84	-4.41

CCNC(=O)Nc1ccc(-c2nc3c(c(N4CCOC[C@@H]4C)n2)CCN(C2COC2)C3)cc1 [RG-7603] (max concentration tested 2500 nM)
Conditions	drug sensitivity score
[1]	2.37
[2]	3.67
[3]	4.17
[4]	7.13
[5]	0.33
[6]	1.86
[7]	0.19
[8]	4.64
[9]	0.89
[10]	0
[11]	8.64
[12]	3.15
[13]	5.07
[15]	2.54

percent inhibition of viability [%]
Conditions	0.25 nM	2.5 nM	25 nM	250 nM	2500 nM
[14]	-3.77	-6.71	-1.18	12.9	25.9
[16]	-9.72	-0.76	9.2	14.6	21
[17]	-10.2	-10.6	-15.4	17.8	33.1
[18]	15	2.98	-2.03	14.2	42.2
[19]	-16.4	-9.21	1.54	34.9	54.6
[20]	-4.33	-4.69	-7.06	3.67	13.1
[21]	-4.71	-3.78	-6.03	6.5	24.9
[22]	-10.2	-9.16	15.7	0.22	16
[23]	-8.96	-4.62	-4.67	17.1	44.4
[24]	-2.39	-0.65	-9.05	-18.6	-57.2
[25]	-5.74	-6.13	-4.3	-0.62	10.1
[26]	-2.9	5.17	4.85	41.4	63.4
[27]	-0.19	-2.47	-0.44	8.66	37
[28]	-2.16	10.2	4.9	24.3	45.1

Cc1ccc(NC(=O)c2ccc(CN3CCN(C)CC3)cc2)cc1Nc1nccc(-c2cccnc2)n1 [Imatinib] (max concentration tested 10000 nM)
Conditions	drug sensitivity score
[1]	5.78
[2]	4.67
[3]	2.14
[4]	3.47
[5]	3.04
[6]	5.74
[7]	6.38
[8]	4.18
[9]	5.24
[10]	2.67
[11]	6.62
[12]	6.1
[13]	4.02
[15]	5.26

percent inhibition of viability [%]
Conditions	1 nM	10 nM	100 nM	1000 nM	10000 nM
[14]	-6.85	-3.28	-7.18	1.24	91.6
[16]	-6.14	-4.91	10.5	15.8	64.8
[17]	-3.36	0.75	-2.9	7.24	63.5
[18]	-9.34	-11	-25.2	-21.8	56.1
[19]	-12.3	-12.6	-18.4	-6.32	71.4
[20]	-11.8	-13	3.62	7.57	37.4
[21]	-2.34	-9.57	-7.02	0.18	101
[22]	-3.96	-13.2	7.28	11.9	79
[23]	0.66	-5.53	-1.76	2.33	70.3
[24]	-6.61	-9.38	0.61	-5.6	101
[25]	-7.45	-5.71	-0.28	8.35	31.7
[26]	0.4	-1.51	5.95	10.5	87.7
[27]	-0.33	-5.36	0.48	5.22	96.3
[28]	-2.16	-7.49	-4.01	-0.85	74.1

Cn1cc(-c2ccc3nnc(Sc4ccc5ncccc5c4)n3n2)cn1 [SGX-523] (max concentration tested 5000 nM)
Conditions	drug sensitivity score
[1]	0
[2]	0
[3]	0
[4]	0
[5]	0.02
[6]	0.89
[7]	2.87
[8]	0
[9]	0.89
[10]	0.04
[11]	0.58
[12]	0
[13]	0
[15]	0.89

percent inhibition of viability [%]
Conditions	0.5 nM	5 nM	50 nM	500 nM	5000 nM
[14]	-2.93	-10.2	-5.18	-9.17	-2.25
[16]	-8.19	-11.2	-7.5	-10.9	5.13
[17]	0.34	-0.3	-4.47	-3.94	1.25
[18]	3.69	0.4	-1.97	8.43	7.74
[19]	3.77	-3.27	-2.38	-4.59	3.26
[20]	1.04	-8.92	-3.62	-0.26	11.5
[21]	-5.57	-5.37	-9.26	-3.51	-7.2
[22]	-11.2	-4.96	17.1	10.2	32.6
[23]	1.09	-7.03	-6.25	-1.89	-5.01
[24]	-3.56	-0.25	-5.07	-2.74	-1.91
[25]	3.88	-2.63	1.81	1.46	11.1
[26]	3.14	1.32	-1.44	5.03	14.4
[27]	-2.71	-0.74	-1.93	1.35	-0.07
[28]	-4.24	-1.01	0.45	4.1	9.78

CCC/C=C/C=C/C(=O)O[C@H]1/C(=C/C(=O)OC)C[C@H]2C[C@H]([C@@H](C)O)OC(=O)C[C@H](O)C[C@@H]3C[C@H](OC(C)=O)C(C)(C)[C@](O)(C[C@@H]4C/C(=C/C(=O)OC)C[C@H](/C=C/C(C)(C)[C@]1(O)O2)O4)O3 [Bryostatin 1] (max concentration tested 100 nM)
Conditions	drug sensitivity score
[1]	0
[2]	31.7
[3]	14.9
[4]	0
[5]	0
[6]	35.4
[7]	0
[8]	0
[9]	23.9
[10]	0
[11]	8.96
[12]	0
[13]	0
[15]	0

percent inhibition of viability [%]
Conditions	0.01 nM	0.1 nM	1 nM	10 nM	100 nM
[14]	-6.34	-41.9	-55.2	-31.9	-30.3
[16]	-10.4	-18.6	-14.9	-23.1	-10.7
[17]	-10.7	25.5	87.5	103	95.4
[18]	13.4	39.5	64.4	35.5	18
[19]	-18.8	-58.9	-74.9	-67.5	-81.5
[20]	-15.1	-25.1	-48.2	-38	-37.6
[21]	1.17	35.4	102	106	99.2
[22]	-14.3	14.4	-0.07	-6.68	5.47
[23]	-5.4	-9.97	-7.91	1.59	-4.21
[24]	-3.95	3.27	75.6	68.3	62.7
[25]	-5.42	-30.1	-40.2	-35	-20.7
[26]	-2.14	-19.4	24.4	20	35.2
[27]	2.73	-2.33	-3.22	1.88	1.24
[28]	0.24	5.23	4.64	21.7	-6.8

Source: the supplement of paper PMC5908809
